Source: US8980793B2, “Phytosanitary formulations” (Centre National de la Recherche Scientifique (CNRS), priority 2007, dated 2015)

Assays:
[1] = Photodegradation of sulcotrione on carnauba wax films irradiated in a Suntest reactor, HPLC analysis; assay type: physicochemical; settings: wax film, 6 hours irradiation
Source text: The methodology for conducting the tests on thin films of cuticular wax comprises the following steps: • Preparation of the wax film: the wax which is used is the commercial carnauba wax. • Adding the pesticide. On the one hand, the active ingredient, sulcotrione, and on the other hand, the commercial formulation, Mikado®(alone or with the adding of at least one extract of at least one tinctorial plant, is deposited under the form of an aqueous solution on the surface of the leaves. The amount of active ingredient deposited by surface unit is equivalent to the amount used in agriculture. The studies are conducted after evaporation of the water. • Recovering of the pesticide. The films are rinsed with water and analysed by HPLC. It has been checked that the step of recovering is quantitative. • Tests in darkness. The concentration of the active ingredients on the surface of the leaves in darkness is controlled in order to measure the penetration rate of the active ingredient in the films and its volatilisation. […]
The photoprotective effects of the extracts according to the invention have been evaluated as follows The surface concentration of the active ingredient (sulcotrione) on the wax films is of 0.76 10^−5 g/cm^2, the active ingredient being used either pure or under the form of a commercial formulation. […]

[2] = cited from earlier work
[3] = Mikado spread on maize plants planted in a field, leaf surface checked by HPLC; settings: spread as Mikado
Source text: For this aim, the commercial formulation, Mikado®, has been spread on maize plants planted in a field.
The amount of sulcotrione and the formation of a by-product of the phototransformation on the surface of the leaves have been checked by HPLC.

[4] = Tests in darkness on wax films (penetration and volatilisation); assay type: physicochemical; settings: wax film
Source text: The methodology for conducting the tests on thin films of cuticular wax comprises the following steps: • Preparation of the wax film: the wax which is used is the commercial carnauba wax. • Adding the pesticide. On the one hand, the active ingredient, sulcotrione, and on the other hand, the commercial formulation, Mikado®(alone or with the adding of at least one extract of at least one tinctorial plant, is deposited under the form of an aqueous solution on the surface of the leaves. The amount of active ingredient deposited by surface unit is equivalent to the amount used in agriculture. The studies are conducted after evaporation of the water. • Recovering of the pesticide. The films are rinsed with water and analysed by HPLC. It has been checked that the step of recovering is quantitative. • Tests in darkness. The concentration of the active ingredients on the surface of the leaves in darkness is controlled in order to measure the penetration rate of the active ingredient in the films and its volatilisation. […] Irradiation tests are conducted in a Suntest reactor simulating solar rays in temperate countries.

For `CS(=O)(=O)c1ccc(C(=O)C2C(=O)CCCC2=O)c(Cl)c1` [sulcotrione], the “Weight percentage of remaining active ingredient after 6 hours of UV exposure” value [1] is listed as 5-10%, the half-life in water [2] is listed as “about 80 days” and the “detection of sulcotrione on the surface of the leaves” value ([3]; maize plants in a field, after 24 hours) is listed as “no longer detected”. The sulcotrione transformed ([3]; surface of maize leaves in a field, after one hour) was 25%, the “penetration of the active ingredient into the films” value [4] was “penetrates slowly into the films” and the “volatilisation of the active ingredient” value [4] was “very little active ingredients volatilize”.
